# Results taken from patent publication US10226413B2, “Solution solubilization composition of insoluble material and method for solubilizing insoluble material using same” (Damy Chemical Co., Ltd., priority 2013, dated 2019).
# Method: The turbidity of each lotion was measured using a spectrophotometer at 620 nm. A high turbidity of a liquid indicates cloudiness of the liquid and a low turbidity of a liquid indicates high transparency of the liquid. The turbidity (optical density) of the lotion was measured in the range of 0.01-1.0.
# The amount of light passing through each solution was measured. The transmittance (T, %) of the solution for light was calculated as follows. First, the measured absorbance was substituted into -log t=A (absorbance, O.D). Since t is always not greater than 1, the transmittance (T) was calculated and expressed in percentage by T (%)=t×100. The transmittance is between 1 and 100%. The higher the transmittance, the higher the transparency. The transmittance of purified water was defined as 100%.
row,Structure (SMILES),solubilization in water by the composition (turbidity and transmittance)
1,COC1=C(OC)C(=O)C(C/C=C(\C)CC/C=C(\C)CC/C=C(\C)CC/C=C(\C)CC/C=C(\C)CC/C=C(\C)CC/C=C(\C)CC/C=C(\C)CC/C=C(\C)CCC=C(C)C)=C(C)C1=O [ubiquinone],can solubilize
2,C[C@@H]1O[C@@H](OC[C@H]2O[C@@H](Oc3c(-c4ccc(O)c(O)c4)oc4cc(O)cc(O)c4c3=O)[C@H](O)[C@@H](O)[C@@H]2O)[C@H](O)[C@H](O)[C@H]1O [rutin],can solubilize
